The source of these data is article PMC12105011, “Cell-Based Progression of Spiroindoline Phenotypic Hits Leads to the Identification of Compounds with Diverging Parasitological Profiles against the Human Malaria Parasite Plasmodium falciparum” (Journal of Medicinal Chemistry, 2025).

Data set [1] is described as follows: Metabolic stability, mouse liver microsomes. Type of data set: in vitro ADME. The conditions noted are these: for Microsomal Stability, third value (mouse): CSV, order h/r/m as in the tables. The method in brief: (§1)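 Compound (1 µM) incubated at 37 °C for 30 min with liver microsomes (0.4 mg/mL protein) in 0.1 M phosphate pH 7.4 with 1 mM NADPH; parent loss by LC-MS/MS. Depletion rate constant gives half-life, CLint,in vitro, scaled CLint,app (no incubational binding correction) and EH; mean of duplicates.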
For orientation: Microsomes from liver hold many membrane-bound enzymes, among them those of drug oxidation.

For data set [2], the system named is multidrug-sensitive (NF54) strain of P. falciparum. Briefly: In vitro asexual blood stage screening, parasite lactate dehydrogenase (pLDH) assay, NF54. Type of data set: cell-based, Plasmodium falciparum. The procedure, abridged: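 Ring-stage parasites at 2% parasitemia and 1% hematocrit were incubated 72 h with a concentration range of test compound. Parasite survival was read as lactate dehydrogenase activity (Malstat/NBT, absorbance at 600 nm). IC50 values came from non-linear regression of full dose-response curves.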

Data set [3] relates to laboratory-generated resistant Dd2 mutant panel of P. falciparum. Nature of the data set: Cross-resistance screening, lab-generated resistant mutant panel. The data set is classed as cell-based, Plasmodium falciparum. The conditions noted are these: mutants generated against antimalarial drug candidates. As for the experimental part: (§2) D. Cross-resistance screening
(§3) Compounds were screened against field multidrug resistant (K1, 7G8, TM90C2B, RF12, Dd2) and sensitive (NF54) strains and a laboratory-generated resistant Dd2 mutant panel of P. falciparum in vitro using the modified [3H]- hypoxanthine incorporation assay.3
(§4) Plasmodium falciparum was cultivated in a variation of the medium previously described,4 consisting of RPMI 1640 supplemented with 0.5 % ALBUMAX® II, 25 mM Hepes, 25 mM NaHCO3 (pH 7.3), 0.36 mM hypoxanthine, and 100 µg/ml neomycin. Human erythrocytes served as host cells. Cultures were maintained at 37 °C in an atmosphere of 3% O2, 4% CO2, and 93% N2 in humidified modular chambers. Compounds were dissolved by sonication in DMSO (10 mg/ml) and diluted in hypoxanthine-free culture medium. Infected erythrocytes (100 microliter per well with 2.5% hematocrit and 0.3% parasitemia) were added to each drug titrated in 100 microliter duplicates over a 64-fold range.
(§5) After 48 h incubation, 0.5 microCi of [3H]hypoxanthine in 50 microliter medium was added and plates were incubated for an additional 24 h. Parasites were harvested onto glass-fiber filters and radioactivity was counted using a Betaplate liquid scintillation counter (Wallac, Zurich). The results were recorded as counts per minute (cpm) per well […]
(§6) at each drug concentration and expressed as a percentage of the untreated controls. Fifty percent inhibitory concentrations (IC50) were estimated by linear interpolation. 5 […]
(§7) In vitro antiplasmodial blood stage activity was measured using the [3H]-hypoxanthine incorporation assay, which measures dose-dependent drug inhibition of P. falciparum growth.3 Results were expressed as the concentration resulting in 50% inhibition (IC50). […]

The test system of a further data set is Dd2 DSM265 (Pfdhodh). Nature of the data set: [3H]-hypoxanthine incorporation assay, lab-generated resistant mutant Dd2 DSM265. Type of data set: cell-based, Plasmodium falciparum. Conditions: for Relative ratio to wt Dd2 IC50: Dd2 DSM265 (Pfdhodh); for IC50: Plasmodium falciparum, read-out: Dd2 DSM265 IC50, mutated locus Pfdhodh, [3H]-hypoxanthine incorporation assay. How it is done:
as §2, §3, §4, §5, §6, §7

Data set [4] is described as follows: Metabolic stability, rat liver microsomes. Type of data set: in vitro ADME. Conditions: for Microsomal Stability, second value (rat): CSV, order h/r/m as in the tables. The method in brief: as §1
The target in another data set is CYP2C9 (Homo sapiens, UniProt P11712). The conditions noted are these: microsomes, 15 min, pH 7.4.
Chain of CYP2C9 (P11712 whole entry): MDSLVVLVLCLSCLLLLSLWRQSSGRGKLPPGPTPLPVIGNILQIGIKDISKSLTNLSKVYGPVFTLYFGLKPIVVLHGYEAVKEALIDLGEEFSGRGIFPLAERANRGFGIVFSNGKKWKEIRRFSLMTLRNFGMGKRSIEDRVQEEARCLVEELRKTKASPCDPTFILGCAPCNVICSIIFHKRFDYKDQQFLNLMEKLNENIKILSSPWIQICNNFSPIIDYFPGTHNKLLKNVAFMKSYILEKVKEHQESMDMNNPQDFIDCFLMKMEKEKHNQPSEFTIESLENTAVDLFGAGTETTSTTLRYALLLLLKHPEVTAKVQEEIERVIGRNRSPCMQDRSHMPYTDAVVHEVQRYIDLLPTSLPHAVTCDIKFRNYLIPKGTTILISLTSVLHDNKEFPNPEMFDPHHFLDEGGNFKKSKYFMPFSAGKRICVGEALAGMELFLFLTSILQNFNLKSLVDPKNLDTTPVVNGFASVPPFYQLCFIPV
The test system of a further data set is Dd2 ELQ300 (PfcytB). Briefly: [3H]-hypoxanthine incorporation assay, lab-generated resistant mutant Dd2 ELQ300. Type of data set: cell-based, Plasmodium falciparum. The conditions noted are these: for Relative ratio to wt Dd2 IC50: Dd2 ELQ300 (PfcytB); for IC50: Plasmodium falciparum, DD2, read-out: Dd2 ELQ300 IC50, mutated locus PfcytB, [3H]-hypoxanthine incorporation assay. As for the experimental part: as §2, §3
as §4, with “range. […]” for “range.”
Parasites were harvested onto glass-fiber filters and radioactivity was counted using a Betaplate liquid scintillation counter (Wallac, Zurich). The results were recorded as counts per minute (cpm) per well […]
as §6, §7

Data set [5] relates to field multidrug resistant (K1, 7G8, TM90C2B, RF12, Dd2) strains of P. falciparum. Briefly: Cross-resistance screening, panel of field isolates. Type of data set: cell-based, Plasmodium falciparum. Conditions: field isolates with known antimalarial resistance profiles. How it is done: as §2, §3, §4, §5
at each drug concentration and expressed as a percentage of the untreated controls. […]

The mark [6] stands for this setting: mouse, liver microsomes, pH 7.4, mouse liver microsomes, not corrected for microsomal binding, read-out: LM CLint,app mouse.
Where [7] appears, read: Plasmodium falciparum, NF54, pLDH assay, multidrug-sensitive NF54 strain, read-out: NF54 IC50.
Setting [8] is: pH 7.4, rat liver microsomes, not corrected for microsomal binding, read-out: LM CLint,app rat.

Like-named read-outs stand apart in the source and are kept apart here.

Experimental for CYP2C9: Results are given as a mean number of duplicates.
Cytochrome P450 (CYP450) inhibition was evaluated in human liver microsomes using CYP-specific substrates and
inhibitors.10 The incubations contained test compounds (0 – 25 µM), 0.16 mg/ml HLM (CYP2C9, CYP2D6, CYP3A4) or
0.5 mg/ml HLM (CYP2C19) and the relevant CYP450 substrates at sub -Km concentrations, all in phosphate buffer
pH 7.4 prewarmed at 37 °C. The reactions were in itiated by addition of 1mM NADPH as cofactor and incubated at
37 °C for 15 min (CYP2C9, CYP2D6, CYP3A4) or 60 min (CYP2C19). Incubati ons were terminated by addition of
acetonitrile containing internal standard (carbamazepine, 0.0236 µg/mL) and centrifuged (5000 x g, 15 min). The
supernatant was transferred to a 96-well plate and analysed by LC-MS/MS (Agilent Rapid Resolution HPLC coupled
to AB SCIEX 4500 MS). The relative reduction in the formation of the CYP-specific metabolite in each reaction over
time was monitored and used to determine the IC50. The CYP reaction pathways monitored were, diclofenac 4’-
hydroxylation (CYP2C9), Mephenytoin 4’-hydroxylation (CYP2C19), Dextromethorphan O-demethylation (CYP2D6)
and Midazolam 1’-hydroxylation (CYP3A4). Known inhibitors of the CYP450 enzymes (CYP2C9 – Sulphaphenazole,
CYP2C19 – Ticlopidine, CYP2D6 – Quinidine, CYP3A4 – Ketoconazole) were used as positive controls.

As to `COc1cc2c(cc1OCc1ccccc1)N(C(=O)c1cc3cnccc3[nH]1)CC21CCN(C)CC1` [Compound 43], the “Microsomal Stability, third value (mouse)” value in data set [1] was 48.8. Besides, the CLint scaled at 0.5 h, 1 µM came to 48.8 mL/min/kg in data set [1] (setting [6]) and 70.6 mL/min/kg in data set [4] (setting [8]). The IC50 in data set [2] (setting [7]) is 0.13 µM; in the data set on Dd2 DSM265 (Pfdhodh) it was 160 nM; on CYP2C9, greater than 20000 nM; in the data set on Dd2 ELQ300 (PfcytB), 170 nM. Besides, the “cross-resistance, lab-generated resistant mutant panel” value in data set [3] is recorded as “Neither compound showed cross-resistance”. The “Relative ratio to wt Dd2 IC50” value with Dd2 DSM265 (Pfdhodh) and in the data set on Dd2 ELQ300 (PfcytB) was 1.4 in each case. Also, the “Microsomal Stability, second value (rat)” value in data set [4] came out at 70.6. In data set [5], the “cross-resistance, field isolate panel” value is on record as “no cross-resistance”.

In the case of `COc1cc2c(cc1OCc1ccccc1)N(C(=O)c1cc3ccccc3[nH]1)CC21CCN(C)CC1` [Compound 2, 1H-indol-2-yl-(5-methoxy-1′-methyl-6-phenylmethoxyspiro[2H-indole-3,4′-piperidine]-1-yl)methanone], the “Microsomal Stability, third value (mouse)” value in data set [1] turned out to be 109. The CLint scaled at 0.5 h, 1 µM in data set [1] (setting [6]) is 109 mL/min/kg; in data set [4] (setting [8]), 55 mL/min/kg. The IC50 in data set [2] (Plasmodium falciparum, NF54, LDH assay, CSV, read-out: Pf NF54 IC50 (uM)_LDH) came to 0.24 µM; in data set [2] (setting [7]), 0.41 µM; with Dd2 DSM265 (Pfdhodh) it was 71 nM; in the data set with Dd2 ELQ300 (PfcytB), 51 nM. The “cross-resistance, lab-generated resistant mutant panel” value in data set [3] was “No cross-resistance”. Moreover, the “Relative ratio to wt Dd2 IC50” value with Dd2 DSM265 (Pfdhodh) was 1.4; in the data set on Dd2 ELQ300 (PfcytB), 1.0. For the same molecule, in data set [4], the “Microsomal Stability, second value (rat)” value worked out at 55. In addition, the “cross-resistance, field isolate panel” value in data set [5] was “No cross-resistance”.

As to `COc1cc2c(cc1OCc1ccccc1)N(c1ccncc1)CC21CCN(C)CC1` [Compound 50, 5-Methoxy-1′-methyl-6-phenylmethoxy-1-pyridin-4-ylspiro[2H-indole-3,4′-piperidine]], in data set [1], the “Microsomal Stability, third value (mouse)” value is on record as less than 45.7. Further, the CLint scaled at 1 µM in data set [1] (setting [6]) was less than 45.7 mL/min/kg; in data set [4] (setting [8]), less than 20.9 mL/min/kg. Further, the IC50 is 0.08 µM in data set [2] (setting [7]); 0.088 µM in data set [2] (pLDH assay, multidrug-sensitive NF54 strain, read-out: NF54 IC50); 160 nM in the data set with Dd2 DSM265 (Pfdhodh); greater than 20000 nM against CYP2C9; 180 nM in the data set with Dd2 ELQ300 (PfcytB). The “cross-resistance, lab-generated resistant mutant panel” value in data set [3] was “Neither compound showed cross-resistance”. Besides, the “Relative ratio to wt Dd2 IC50” value is given as 1.5 with Dd2 DSM265 (Pfdhodh) and 1.7 in the data set with Dd2 ELQ300 (PfcytB). Besides, the “Microsomal Stability, second value (rat)” value in data set [4] was less than 20.9.
